Drawing on PMC2788963 (Bioorganic & medicinal chemistry letters, 2009), this text covers NET/SERT for one compound.

For the assay, the target named is SERT (Rattus norvegicus, UniProt P31652). The format is binding. Particulars: selectivity, ratio of Ki values.
Sequence of SERT (P31652 whole entry): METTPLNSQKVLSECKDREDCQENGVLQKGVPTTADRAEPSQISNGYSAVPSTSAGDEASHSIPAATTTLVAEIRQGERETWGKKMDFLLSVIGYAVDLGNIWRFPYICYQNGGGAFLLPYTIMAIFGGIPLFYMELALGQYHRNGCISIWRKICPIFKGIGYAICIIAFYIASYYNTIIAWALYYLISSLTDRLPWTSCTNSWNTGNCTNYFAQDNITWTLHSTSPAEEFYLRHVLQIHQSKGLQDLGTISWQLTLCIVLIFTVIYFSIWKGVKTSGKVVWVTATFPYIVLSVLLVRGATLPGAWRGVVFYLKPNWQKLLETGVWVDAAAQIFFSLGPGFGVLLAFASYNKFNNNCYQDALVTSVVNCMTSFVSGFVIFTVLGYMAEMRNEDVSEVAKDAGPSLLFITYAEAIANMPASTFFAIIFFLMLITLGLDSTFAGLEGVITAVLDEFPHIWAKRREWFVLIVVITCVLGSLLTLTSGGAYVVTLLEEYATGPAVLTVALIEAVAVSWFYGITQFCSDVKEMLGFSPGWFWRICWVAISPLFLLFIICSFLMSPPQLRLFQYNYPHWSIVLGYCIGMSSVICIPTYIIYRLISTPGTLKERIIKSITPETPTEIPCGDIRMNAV

Consider `Clc1ccc(CO[C@@]2(c3ccc(Cl)cc3)C[C@H]3CC[C@@H](C2)N3)cc1` [7f], for which the NET/SERT is on record as 23,700.
